Data taken from patent US20260215419A1, “PLANT EXTRACTS WITH HERBICIDAL ACTIVITY” (Agrematch Ltd., priority 2023, published 2026).

Columns and labels:
Assay type in all cases: in vivo
Amaranthus palmeri = assay: Post-emergence herbicidal activity, visual damage score 0-100; conditions: Table 4; 7-day old plants; 0.8 ml per 80 cm^2 pot; scored 13 days after application; average of five pots; synthetic Rhein 1 gram/liter (1000 g/ha) in 2% MIPA, 2% DASH, 0.25% Genapol
Protocol: (§1) Damage assessment: Herbicidal activity was assessed and scored by visual inspection of the plants in comparison to plants treated with the formulation alone (with no plant extract) as control. Activity score is in the range of 0 to 100, where 0 represents no herbicidal activity like control plants and 100 represents the maximal herbicidal activity (i.e., total death of the plant).
(§2) The herbicidal activity of Rhein-containing extracts was determined by post-emergence application on 8-day old plants (weeds) of the Amaranthus palmeri and Setaria viridis species that were grown at 16 hours/8 hours day/night cycles at 30° C./25° C., respectively. Leaf stage was typically 4-6 for A. palmeri and 3-4 for S. viridis. […]
(§3) Herbicidal activity was assessed and scored 4 days after application by visual inspection of the plants in comparison to plants treated with the control solution alone (with no active ingredient). […]
(§4) Herbicidal activity of extract sample A-1b was determined by post-emergence application on 8-day old plants (weeds) of the A. palmeri and S. viridis species and 11-day old plants (weeds) of Abutilon theophrasti, Solanum nigrum, Echinochloa colonum, Phalaris canarinesis and Lolium multiflorum that were grown at 16 hours/8 hours day/night cycles at 30° C./25° C., respectively. […]
(§5) Herbicidal activity was assessed and scored 13 days after application, as described hereinabove. […]

Setaria viridis = assay: as above; conditions: Table 4; 7-day old plants; 0.8 ml per 80 cm^2 pot; scored 13 days after application; average of five pots; synthetic Rhein 1 gram/liter (1000 g/ha)
Protocol: as §1, §2, §3, §4, §5

Solanum nigrum = assay: Post-emergence weed panel, visual damage score 0-100; conditions: Table 4; 8-day old plants; 0.8 ml per 80 cm^2 pot; scored 13 days after application; average of five pots; synthetic Rhein 1 gram/liter (1000 g/ha)
Protocol: Damage assessment: Herbicidal activity was assessed and scored by visual inspection of the plants in comparison to plants treated with the formulation alone (with no plant extract) as control. Activity score is in the range of 0 to 100, where 0 represents no herbicidal activity like control plants and 100 represents the maximal herbicidal activity (i.e., total death of the plant). Herbicidal activity of extract sample A-1b was determined by post-emergence application on 8-day old plants (weeds) of the A. palmeri and S. viridis species and 11-day old plants (weeds) of Abutilon theophrasti, Solanum nigrum, Echinochloa colonum, Phalaris canarinesis and Lolium multiflorum that were grown at 16 hours/8 hours day/night cycles at 30° C./25° C., respectively. Leaf stage was typically 4-6 for A. palmeri, 3-4 for S. viridis, 3 for A. theophrasti and S. nigrum, 4 for E. colonum, and 2 for P. canarinesis and L. multiflorum. […] Herbicidal activity was assessed and scored 3 days after application, as described hereinabove. Herbicidal activity was determined by post-emergence application on 7-day old plants (weeds) of the A. palmeri and S. viridis species and 8-day old plants (weeds) of S. nigrum, and C. quinoa that were grown at 16 hours/8 hours day/night cycles at 30° C./25° C., respectively. […] Herbicidal activity was assessed and scored 13 days after application, as described hereinabove.

Chenopodium quinoa = assay: as above; conditions: Table 4; 8-day old plants; 0.8 ml per 80 cm^2 pot; scored 13 days after application; average of five pots; synthetic Rhein 1 gram/liter (1000 g/ha)
Protocol: Damage assessment: Herbicidal activity was assessed and scored by visual inspection of the plants in comparison to plants treated with the formulation alone (with no plant extract) as control. Activity score is in the range of 0 to 100, where 0 represents no herbicidal activity like control plants and 100 represents the maximal herbicidal activity (i.e., total death of the plant). Herbicidal activity was determined by post-emergence application on 7-day old plants (weeds) of the A. palmeri and S. viridis species and 8-day old plants (weeds) of S. nigrum, and C. quinoa that were grown at 16 hours/8 hours day/night cycles at 30° C./25° C., respectively. Leaf stage was typically 4-6 for A. palmeri, 3-4 for S. viridis, and 4 for S. nigrum and C. quinoa. Each treatment contained five 80 cm^2 pots, each containing about 4 plants of one of the tested weed species. Each pot was sprayed with 0.8 ml of either: • 1. the exemplary extract sample A-1b, in which plant source A powder was mixed with solution 1b for 1.5 hours before filtration, or • 2. 1 gram/liter synthetic Rhein molecule dissolved in 2% MIPA, 2% DASH and 0.25% Genapol solution, which is equivalent to 1000 g/ha. Herbicidal activity was assessed and scored 13 days after application, as described hereinabove.

**Q.** O=C(O)c1cc(O)c2c(c1)C(=O)c1cccc(O)c1C2=O [Synthetic Rhein, Rhein] was tested. Which “Score (Amaranthus palmeri)” value (Amaranthus palmeri) did it give?
**A.** The value was 100.

**Q.** What about the “Score (Setaria viridis)” value (Setaria viridis) of the same compound?
**A.** The value was 97.

**Q.** What about the “Score (Solanum nigrum)” value (Solanum nigrum) of the same compound?
**A.** Its value is 100.

**Q.** And the “Score (Chenopodium quinoa)” value (Chenopodium quinoa)?
**A.** Its value is 100.
